According to US10479780B2, “Aminopyrazole derivatives” (Chugai Seiyaku Kabushiki Kaisha, priority 2015, dated 2019):
pIC50: −log10 of the molar value.

Key:
Assay type in all cases: biochemical
human Lck enzyme = target: T1, human Lck enzyme (Homo sapiens, UniProt P06239); assay: Lck enzyme inhibitory activity (time-resolved fluorometry, biotinylated peptide phosphorylation); conditions: biotinylated peptide phosphorylation, read-out: LCK_IC50
T1 construct: purchased Carna Biosciences, Inc. 08-170
Method in brief: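 Readout pairs a europium cryptate-labelled anti-phosphotyrosine antibody with XL665-streptavidin, measured by time-resolved fluorescence. IC50 derived from percent inhibition against untreated controls.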

human Yes1 enzyme = target: T2, human Yes1 enzyme (Homo sapiens, UniProt P07947); assay: Yes1 enzyme inhibitory activity (time-resolved fluorometry, biotinylated peptide phosphorylation); conditions: biotinylated peptide phosphorylation, read-out: YES_IC50
T2 construct: made in house
Method in brief: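 Inhibition was expressed against a compound-free control to give IC50, using TR-FRET read-out (Eu-cryptate anti-pTyr antibody, streptavidin-XL665).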

human Src enzyme = target: T3, human Src enzyme (Homo sapiens, UniProt P12931); assay: Src enzyme inhibitory activity (time-resolved fluorometry, biotinylated peptide phosphorylation); conditions: biotinylated peptide phosphorylation, read-out: SRC_IC50
T3 construct: purchased Carna Biosciences, Inc. 08-173
Method in brief: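 Compounds were tested for blocking tyrosine phosphorylation of a biotinylated peptide substrate by recombinant human Src. Phosphorylated product was quantified by time-resolved fluorometry using europium cryptate and XL665 conjugates, and IC50 was calculated against the compound-free control.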

T2 sequence (P07947 whole entry): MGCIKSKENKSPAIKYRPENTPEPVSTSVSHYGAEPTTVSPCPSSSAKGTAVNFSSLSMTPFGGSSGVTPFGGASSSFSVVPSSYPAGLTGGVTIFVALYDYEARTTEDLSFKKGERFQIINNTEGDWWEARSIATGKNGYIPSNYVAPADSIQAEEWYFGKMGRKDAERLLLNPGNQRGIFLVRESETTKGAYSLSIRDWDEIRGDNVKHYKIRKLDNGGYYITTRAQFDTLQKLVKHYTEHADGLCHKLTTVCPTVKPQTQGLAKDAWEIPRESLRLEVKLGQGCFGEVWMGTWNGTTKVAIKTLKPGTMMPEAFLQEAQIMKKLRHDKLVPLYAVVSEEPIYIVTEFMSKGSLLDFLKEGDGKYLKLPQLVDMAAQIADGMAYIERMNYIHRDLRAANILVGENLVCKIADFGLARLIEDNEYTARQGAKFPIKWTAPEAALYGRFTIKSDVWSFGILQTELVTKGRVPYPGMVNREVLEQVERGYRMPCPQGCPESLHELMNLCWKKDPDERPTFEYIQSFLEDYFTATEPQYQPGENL
T3 sequence (P12931 whole entry): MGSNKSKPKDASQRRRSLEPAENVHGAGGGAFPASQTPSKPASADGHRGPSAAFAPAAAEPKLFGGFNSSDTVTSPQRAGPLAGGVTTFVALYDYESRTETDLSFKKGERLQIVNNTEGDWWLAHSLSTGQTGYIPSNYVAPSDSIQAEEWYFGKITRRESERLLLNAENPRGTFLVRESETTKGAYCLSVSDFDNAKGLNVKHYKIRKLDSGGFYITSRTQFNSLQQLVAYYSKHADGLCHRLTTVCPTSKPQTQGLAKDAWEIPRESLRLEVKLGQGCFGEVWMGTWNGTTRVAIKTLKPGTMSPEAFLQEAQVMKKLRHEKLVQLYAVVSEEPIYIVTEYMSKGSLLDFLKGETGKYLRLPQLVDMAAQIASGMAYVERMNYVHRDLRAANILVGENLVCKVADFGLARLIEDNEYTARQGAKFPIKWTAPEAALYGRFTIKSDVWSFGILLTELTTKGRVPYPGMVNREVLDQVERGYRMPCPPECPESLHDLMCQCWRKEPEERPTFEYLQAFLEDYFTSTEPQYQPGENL
T1 sequence (P06239 whole entry): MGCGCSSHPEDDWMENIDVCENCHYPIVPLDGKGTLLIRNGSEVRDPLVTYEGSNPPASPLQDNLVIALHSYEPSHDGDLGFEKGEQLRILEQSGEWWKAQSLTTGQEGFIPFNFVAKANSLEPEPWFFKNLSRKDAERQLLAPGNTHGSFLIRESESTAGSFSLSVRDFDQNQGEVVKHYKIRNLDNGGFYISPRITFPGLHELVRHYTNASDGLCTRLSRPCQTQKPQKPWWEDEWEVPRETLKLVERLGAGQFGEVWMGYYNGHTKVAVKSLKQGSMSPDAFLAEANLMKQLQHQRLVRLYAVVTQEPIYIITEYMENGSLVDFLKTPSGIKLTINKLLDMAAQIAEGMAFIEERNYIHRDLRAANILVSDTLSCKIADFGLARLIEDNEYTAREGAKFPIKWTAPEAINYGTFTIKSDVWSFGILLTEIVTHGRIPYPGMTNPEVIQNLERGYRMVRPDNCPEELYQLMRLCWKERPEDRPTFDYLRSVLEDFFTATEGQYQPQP

| Compound | pIC50 (human Lck enzyme) | pIC50 (human Yes1 enzyme) | pIC50 (human Src enzyme) |
| --- | --- | --- | --- |
| Cc1cc2cc(C(=O)c3cnn(-c4cnc(Oc5ccccc5F)cc4C)c3N)[nH]c2cc1NS(C)(=O)=O [Example 4-2-061, N-(2-(5-Amino-1-(6-(2-fluorophenoxy)-4-methylpyridin-3-yl)-1H-pyrazole-4-carbonyl)-5-methyl-1H-indol-6-yl)methanesulfonamide] | 8.19 | 9.28 | 7.51 |
| Cc1cc2cc(C(=O)c3cnn(-c4cnc(Oc5cccc(F)c5F)cc4C)c3N)[nH]c2cc1NS(C)(=O)=O [Example 4-2-062, N-[2-[5-amino-1-[6-(2,3-difluorophenoxy)-4-methylpyridin-3-yl]pyrazole-4-carbonyl]-5-methyl-1H-indol-6-yl]methanesulfonamide] | 7.68 | 8.49 | 6.89 |
| Cc1cc2cc(C(=O)c3cnn(-c4cnc(Oc5ccccc5Cl)cc4C)c3N)[nH]c2cc1NS(C)(=O)=O [Example 4-2-063, N-[2-[5-amino-1-[6-(2-chlorophenoxy)-4-methylpyridin-3-yl]pyrazole-4-carbonyl]-5-methyl-1H-indol-6-yl]methanesulfonamide] | 8.08 | 8.70 | 7.11 |
| Cc1cc2cc(C(=O)c3cnn(-c4cnc(Oc5c(F)cccc5Cl)cc4C)c3N)[nH]c2cc1NS(C)(=O)=O [Example 4-2-064, N-[2-[5-amino-1-[6-(2-chloro-6-fluorophenoxy)-4-methylpyridin-3-yl]pyrazole-4-carbonyl]-5-methyl-1H-indol-6-yl]methanesulfonamide] | 7.85 | 8.62 | 7.20 |
| Cc1cc2cc(C(=O)c3cnn(-c4cnc(Oc5ccccc5C)cc4C)c3N)[nH]c2cc1NS(C)(=O)=O [Example 4-2-065, N-[2-[5-amino-1-[4-methyl-6-(2-methylphenoxy)pyridin-3-yl]pyrazole-4-carbonyl]-5-methyl-1H-indol-6-yl]methanesulfonamide] | 7.74 | 8.66 | 7.36 |
| Cc1cc2cc(C(=O)c3cnn(-c4cnc(Oc5cccc(Cl)c5)cc4C)c3N)[nH]c2cc1NS(C)(=O)=O [Example 4-2-066, N-[2-[5-amino-1-[6-(3-chlorophenoxy)-4-methylpyridin-3-yl]pyrazole-4-carbonyl]-5-methyl-1H-indol-6-yl]methanesulfonamide] | 7.44 | 8.03 | 6.80 |
| Cc1cc2cc(C(=O)c3cnn(-c4cnc(Oc5ccc(F)cc5)cc4C)c3N)[nH]c2cc1NS(C)(=O)=O [Example 4-2-067, N-[2-[5-amino-1-[6-(4-fluorophenoxy)-4-methylpyridin-3-yl]pyrazole-4-carbonyl]-5-methyl-1H-indol-6-yl]methanesulfonamide] | 7.23 | 8.20 | 7.01 |
| Cc1cc2cc(C(=O)c3cnn(-c4ccc(Oc5ccccc5F)cc4C)c3N)[nH]c2cc1NS(=O)(=O)CCCF [Example 4-2-068, N-[2-[5-amino-1-[4-(2-fluorophenoxy)-2-methylphenyl]pyrazole-4-carbonyl]-5-methyl-1H-indol-6-yl]-3-fluoropropane-1-sulfonamide] | 7.68 | 8.74 | 7.55 |
| Cc1cc2cc(C(=O)c3cnn(-c4ccc(Oc5cccc(F)c5F)cc4C)c3N)[nH]c2cc1NS(=O)(=O)CCCF [Example 4-2-069, N-[2-[5-amino-1-[4-(2,3-difluorophenoxy)-2-methylphenyl]pyrazole-4-carbonyl]-5-methyl-1H-indol-6-yl]-3-fluoropropane-1-sulfonamide] | 7.66 | 9.00 | 7.17 |
| Cc1cc2cc(C(=O)c3cnn(-c4c(C)cc(Oc5ccccc5F)cc4F)c3N)[nH]c2cc1NS(=O)(=O)CCCF [Example 4-2-070, N-[2-[5-amino-1-[2-fluoro-4-(2-fluorophenoxy)-6-methylphenyl]pyrazole-4-carbonyl]-5-methyl-1H-indol-6-yl]-3-fluoropropane-1-sulfonamide] | 7.33 | 8.12 | 6.85 |
| Cc1cc2cc(C(=O)c3cnn(-c4c(C)cc(Oc5cccc(F)c5F)cc4F)c3N)[nH]c2cc1NS(=O)(=O)CCCF [Example 4-2-071, N-[2-[5-amino-1-[4-(2,3-difluorophenoxy)-2-fluoro-6-methylphenyl]pyrazole-4-carbonyl]-5-methyl-1H-indol-6-yl]-3-fluoropropane-1-sulfonamide] | 7.11 | 7.92 | 6.80 |
| Cc1cc2cc(C(=O)c3cnn(-c4cnc(Oc5ccccc5F)cc4C)c3N)[nH]c2cc1NS(=O)(=O)CCCF [Example 4-2-072, N-[2-[5-amino-1-[6-(2-fluorophenoxy)-4-methylpyridin-3-yl]pyrazole-4-carbonyl]-5-methyl-1H-indol-6-yl]-3-fluoropropane-1-sulfonamide] | 7.70 | 8.74 | 7.06 |
| Cc1cc2cc(C(=O)c3cnn(-c4cnc(Oc5c(F)cccc5F)cc4C)c3N)[nH]c2cc1NS(=O)(=O)CCCF [Example 4-2-073, N-[2-[5-amino-1-[6-(2,6-difluorophenoxy)-4-methylpyridin-3-yl]pyrazole-4-carbonyl]-5-methyl-1H-indol-6-yl]-3-fluoropropane-1-sulfonamide] | 7.72 | 8.51 | 7.43 |
| Cc1cc2cc(C(=O)c3cnn(-c4cnc(Oc5ccccc5Cl)cc4C)c3N)[nH]c2cc1NS(=O)(=O)CCCF [Example 4-2-074, N-[2-[5-amino-1-[6-(2-chlorophenoxy)-4-methylpyridin-3-yl]pyrazole-4-carbonyl]-5-methyl-1H-indol-6-yl]-3-fluoropropane-1-sulfonamide] | 7.57 | 8.57 | 7.15 |
| Cc1cc2cc(C(=O)c3cnn(-c4cnc(Oc5cccc(Cl)c5)cc4C)c3N)[nH]c2cc1NS(=O)(=O)CCCF [Example 4-2-075, N-[2-[5-amino-1-[6-(3-chlorophenoxy)-4-methylpyridin-3-yl]pyrazole-4-carbonyl]-5-methyl-1H-indol-6-yl]-3-fluoropropane-1-sulfonamide] | 6.96 | 8.00 | 6.77 |
| Cc1cc2cc(C(=O)c3cnn(-c4cnc(Oc5ccc(F)cc5)cc4C)c3N)[nH]c2cc1NS(=O)(=O)CCCF [Example 4-2-076, N-[2-[5-amino-1-[6-(4-fluorophenoxy)-4-methylpyridin-3-yl]pyrazole-4-carbonyl]-5-methyl-1H-indol-6-yl]-3-fluoropropane-1-sulfonamide] | 7.21 | 7.74 | 6.89 |
| Cc1cc(Oc2ccccc2F)ccc1-n1ncc(C(=O)c2cc3cc(Cl)c(NS(C)(=O)=O)cc3[nH]2)c1N [Example 4-2-077, N-[2-[5-amino-1-[4-(2-fluorophenoxy)-2-methylphenyl]pyrazole-4-carbonyl]-5-chloro-1H-indol-6-yl]methanesulfonamide] | 8.37 | 9.19 | 7.60 |
| Cc1cc(Oc2cccc(F)c2F)ccc1-n1ncc(C(=O)c2cc3cc(Cl)c(NS(C)(=O)=O)cc3[nH]2)c1N [Example 4-2-078, N-[2-[5-amino-1-[4-(2,3-difluorophenoxy)-2-methylphenyl]pyrazole-4-carbonyl]-5-chloro-1H-indol-6-yl]methanesulfonamide] | 7.30 | 8.23 | 7.04 |
| Cc1cc(Oc2ccccc2F)cc(F)c1-n1ncc(C(=O)c2cc3cc(Cl)c(NS(C)(=O)=O)cc3[nH]2)c1N [Example 4-2-079, N-[2-[5-amino-1-[2-fluoro-4-(2-fluorophenoxy)-6-methylphenyl]pyrazole-4-carbonyl]-5-chloro-1H-indol-6-yl]methanesulfonamide] | 7.62 | 8.59 | 7.18 |
| Cc1cc(Oc2cccc(F)c2F)cc(F)c1-n1ncc(C(=O)c2cc3cc(Cl)c(NS(C)(=O)=O)cc3[nH]2)c1N [Example 4-2-080, N-[2-[5-amino-1-[4-(2,3-difluorophenoxy)-2-fluoro-6-methylphenyl]pyrazole-4-carbonyl]-5-chloro-1H-indol-6-yl]methanesulfonamide] | 7.17 | 7.92 | 6.77 |
| Cc1cc(Oc2cc(F)ccc2F)cc(F)c1-n1ncc(C(=O)c2cc3cc(Cl)c(NS(C)(=O)=O)cc3[nH]2)c1N [Example 4-2-081, N-[2-[5-amino-1-[4-(2,5-difluorophenoxy)-2-fluoro-6-methylphenyl]pyrazole-4-carbonyl]-5-chloro-1H-indol-6-yl]methanesulfonamide] | 7.08 | 7.85 | 6.68 |
| Cc1cc(Oc2ccccc2Cl)cc(F)c1-n1ncc(C(=O)c2cc3cc(Cl)c(NS(C)(=O)=O)cc3[nH]2)c1N [Example 4-2-082, N-[2-[5-amino-1-[4-(2-chlorophenoxy)-2-fluoro-6-methylphenyl]pyrazole-4-carbonyl]-5-chloro-1H-indol-6-yl]methanesulfonamide] | 6.80 | 7.66 | 6.51 |
| Cc1cc(Oc2cccc(Cl)c2)cc(F)c1-n1ncc(C(=O)c2cc3cc(Cl)c(NS(C)(=O)=O)cc3[nH]2)c1N [Example 4-2-083, N-[2-[5-amino-1-[4-(3-chlorophenoxy)-2-fluoro-6-methylphenyl]pyrazole-4-carbonyl]-5-chloro-1H-indol-6-yl]methanesulfonamide] | 6.60 | 7.57 | 6.28 |
